Source: patent publication US10758609B2, “Cross-reactive T-cell epitopes of HIV, SIV, and FIV for vaccines in humans and cats” (priority 2015, dated 2020)

Columns and labels:
PBMC from HIV^+ subjects = assay: IFNγ ELISpot of PBMC from HIV+ human subjects; assay type: cell-based
Procedure: (§1) The overlapping peptide pools of FIV and HIV-1 structural and enzyme proteins were used to stimulate the […] (PBMC) and the T cells from HIV^+ subjects as previously described for epitope mapping of HIV-1 and FIV p24 and reverse transcriptase (RT) (Sanou et al., 2013; Roff et al., 2015). The individual peptides in those peptide pools with positive responses to either interferon-γ (IFNγ) production and/or T-cell proliferation were determined with IFNγ ELISpot analysis and CFSE-based CD3^+CD4^+ and CD3^+CD8^+ T-cell proliferation analyses followed by the FACS-based intracellular staining (ICS) for cytolysin (perforin) and cytotoxin (granzyme A [GrzA] and GrzB) (Sanou et al., 2013; Roff et al., 2015). Besides viral p24 and RT proteins, the identical approach was used to identify anti-HIV/FIV T-cell epitopes on viral matrix (MA), nucleocapsid (NC), protease (PR), RNAase, integrase (IN), surface envelope (SU Env), and transmembrane envelope (TM Env) (FIG. 12).
(§2) Since our goal is to develop HIV vaccine for human use, the HIV peptides (Table 10) counterpart of the cross-reactive FIV peptides shown in Table 9 were tested with PBMC and T cells from HIV^+ subjects. The immune functions analyzed were human IFNγ production by ELISpot, cytolysin/cytotoxin production by ICS, and CFSE-based proliferation of CD3^+CD4^+ and CD3^+CD8^+ T cells from HIV^+ subjects (Table 10, the first set of results). In addition, the Los Alamos National Laboratories (LANL) database was used to identify the HLA allele(s) of the HIV epitope sequence with CTL activity that can exist within the sequence of the conserved counterpart HIV peptide (Table 9, LANL CTL). The bold HLA class-I supertypes and the bold 2-digit alleles are those on the “Optimal CD8^+ CTL Epitopes” list and those without bold are alleles for potential CTL epitope. […] The HLA class II such as HLA-DRB1 has yet to be fully classified into supertypes, and therefore the 4-digit resolution nomenclatures for the HLA-DRB1 alleles are shown.
In addition, these peptides were also analyzed for IFNγ production, CD4^+ and CD8^+ T-cell proliferation, and cytolysin (perforin) and cytotoxin (granzyme A (GrzA) and GrzB)) mRNA production of PBMC or T cells from 8-30 HIV^+ human subjects. The frequency of responders is based on the individual responses of the vaccinated cats or HIV^+ human subjects after subtraction of the average of the responses of PBMC or T cells from 6-8 non-vaccinated cats or 8-20 HIV-negative human subjects.
(§3) The threshold for positive IFNγ and IL2 ELISpot responses is ≥50 spot-forming units (SFU) per 10^6 PBMC. The threshold for CFSE-based CD4^+ and CD8^+ T-cell proliferation is ≥2% CD4^+ T-cell CFSE^low or CD8^+ T-cell CFSE^low. The threshold of FACS-based intracellular cytokine staining (ICS) is ≥0.2%. […] The nine FIV peptides in black were used in the current MAP vaccine trial, whereas the 13 peptides in blue were not used. […] The MAPs and their corresponding peptide(s) were also tested for their ability to enhance or suppress in vitro FIV infection of feline PBMC (E/S of peptides and E/S of MAP).
(§4) The counterpart HIV-1 peptides of the FIV peptides were also tested for immunogenicity using PBMC and T cells from HIV^+ human subjects. […] The HRT7-1 and HRT7-2 were also tested with cells from HIV^+ subjects on ART. The threshold for positive IFNγ ELISpot response is ≥75 spot-forming units (SFU) per 10^6 PBMC. The threshold for CFSE-based CD4^+ (CD4^+ T) and CD8^+ (CD8^+ T) T-cell proliferation is ≥2% CD4^+ T-cell CFSE^low or CD8^+ T-cell CFSE^low. The threshold of intracellular cytokine staining (ICS) of FACS-based cytolysin (perforin) and cytotoxins (granzymes A and B) in CD4^+ T cells (CyCD4) and CD8^+ T cells (CyCD8) is ≥0.2%.

[1] = system: CD3^+CD4^+ T cells from HIV^+ subjects; assay: CFSE-based CD3+CD4+ T-cell proliferation, HIV+ human subjects
Procedure: as §1, §2, §3
as §4, with “≥0.2%. […] The nine HIV-1 peptides in black are the counterpart FIV peptides used in the current MAP vaccine trial, whereas the 13 peptides in blue were not.” for “≥0.2%.”

[2] = system: CD3^+CD8^+ T cells from HIV^+ subjects; assay: CFSE-based CD3+CD8+ T-cell proliferation, HIV+ human subjects
Procedure: as §1, §2, §3
as §4, with “≥0.2%. […] The nine HIV-1 peptides in black are the counterpart FIV peptides used in the current MAP vaccine trial, whereas the 13 peptides in blue were not.” for “≥0.2%.”

[3] = system: CD8^+ T cells from HIV^+ subjects; assay: FACS-based intracellular staining (ICS) for cytolysin (perforin) and cytotoxins (GrzA, GrzB) in CD8+ T cells; settings: HIV+ human subjects
Procedure: as §1, §2, §3
as §4, with “≥0.2%. […] The nine HIV-1 peptides in black are the counterpart FIV peptides used in the current MAP vaccine trial, whereas the 13 peptides in blue were not.” for “≥0.2%.”

[4] = system: CD4^+ T cells from HIV^+ subjects; settings: HIV+ human subjects
Procedure: as §1, §2
as §4, with “≥0.2%. […] The nine HIV-1 peptides in black are the counterpart FIV peptides used in the current MAP vaccine trial, whereas the 13 peptides in blue were not.” for “≥0.2%.”

[5] = system: PBMC from FIV-vaccinated cats; assay: Feline IFNγ ELISpot of PBMC from vaccinated cats; assay type: cell-based, cat
Procedure: (§5) IFNγ and IL2 ELISpot analyses were performed using feline IFNγ ELISpot and feline IL2 ELISpot kits (R&D Systems, Cat# SEL764 and SEL1890) as described. The threshold is defined as ≥50 spot forming units (SFU) per 1×10^6 PBMC when counted with MVS ELISpot Reader (MVS Pacific, LLC). Each result is an average of the duplicate samples after subtraction of the average value of the media controls.
(§6) Concurrently, the overlapping peptide pools of FIV structural/enzyme proteins were used to stimulate PBMC and T cells from FIV-vaccinated cats. These cats were vaccinated with prototype dual-subtype FIV vaccine which was the prototype to our commercial FIV vaccine (Coleman et al., 2014). The feline assays (Example 1) equivalent to those of human assays (Sanou et al., 2013; Roff et al., 2015) were used except for ICS analysis. In place of ICS for cytolysin/cytotoxins, IL2 ELISpot analysis was performed. […] The results for FIV-vaccinated cats included IFNγ and IL2 productions and CD3^+CD4+ and CD3^+CD8^+ T-cell proliferation (Table 9, the second set of results).
(§7) The feline IFNγ and L2 ELISpot analyses of PBMC to FIV MAPs and peptides were performed as previously described (Abbott et al. (2012)) using feline IFNγ modular kit (R&D Systems, Minneapolis, Minn.) and feline IL2 modular kit (R&D Systems). All results shown in the figures (FIGS. 8A-1, 8B-1, 8A-2, 8B-2, 8A-3, 8B-3) are after subtracting the average value of the results from all control cats.
(§8) The second parameter evaluated was the ability of the peripheral blood mononuclear cells (PBMC) from vaccinated and control cats to produce IL2 and interferon-γ (IFNγ) proteins in responses to FIV MAPs and peptides (FIGS. 8A-1, 8A-2, 8A-3, 8B-1, 8B-2, 8B-3) using feline IL2 and IFNγ ELISpot assays (Aranyos et al. (2016); Abbott et al. (2012)). IL2 enhances the proliferation of FIV-specific CD4^+ T cells and CD8^+ T cells. IFNγ is known enhance the FIV-specific CTL activities in vaccinated cats (Abbas et al. (2015)).

[6] = system: PBMC from FIV-vaccinated cats; assay: Feline IL2 ELISpot of PBMC from vaccinated cats; assay type: cell-based, cat; settings: FIV peptides
Procedure: as §5, §6, §7, §8

[7] = system: feline CD3^+CD4^+ T cells; assay: CFSE-based feline CD3+CD4+ T-cell proliferation; design: species or system cat; settings: FIV peptides; FIV-vaccinated cats
Procedure: (§9) Carboxyfluorescein diacetate succinimide ester (CFSE)-proliferation was performed according to the manufacturer's protocol (Invitrogen, Grand Island, N.Y.) and processed using a previously described modification. The modification consisted of 2.5×10^5 CFSE-labeled feline PBMC stimulated for 5 days (37° C., 5% CO2) with 4 μg/mL peptide in culture media (RPMI medium 25 µg/mL gentamycin, and 10% heat-inactivated fetal bovine serum (FBS)). Peptide pools consisted of 3-5 overlapping peptides of 4 μg/mL each. The antibodies used for flow cytometry based proliferation analysis consisted of murine anti-feline (Fe) CD3 monoclonal antibody (MAb clone kindly provided by Drs. Yorihiro Nishimura and Takayuki Miyazawa; described in [32]) combined with secondary goat anti-mouse IgG3-APC/CY7 MAb (SouthernBiotech, Birmingham, Ala.; Cat#1100-19); and murine anti-FeCD4-PE MAb (SouthernBiotech, Cat#8130-09); and murine anti-FeCD8 MAb (MAb clone kindly provided by Dr. Nazareth Gengozian, described in [33]) with secondary goat anti-mouse IgG2a-PE/CY7 (Southern Biotech, Cat#1080-17). The murine anti-B220-APC MAb for detecting feline B cells (SouthernBiotech, Cat#1665-11) and previously described MAbs for CFSE were used for FACS phenotyping. Both FACS phenotyping and CFSE-proliferation analyses were performed with BD LSRII and FACSDiva™ Software (BD Biosciences, San Jose, Calif.). The final value for each sample was derived after subtraction of the average value of the media controls using a positive threshold of ≥1 CFSE^low.
as §6
(§10) Carboxyfluorescein diacetate succinimide ester (CFSE)-proliferation analysis was according to the manufacturer's protocol (Invitrogen-Fisher, Carlsbad, Calif.) and processed as previously described (Roff et al. (2015)) using the following modifications: anti-feline CD3 antibody ((clone NZM1), a generous gift from T. Miyazawa (Univ. of Tokyo, Japan)) in combination with APC-conjugated anti-mouse IgG3 (Southern Biotech, Birmingham, Ala.), PE-conjugated anti-feline CD4 antibody (Southern Biotech), and anti-feline CD8 antibody (gift from N. Gengozian, University of Tennessee (Gengozian et al. (1997))) in combination with PE/Cy7-conjugated anti-mouse IgG2b (Southern Biotech) to detect the proliferation of feline CD3^+CD4+ T cells and feline […]. All results shown in the figures (FIGS. 7A-1, 7B-1, 7A-2, 7B-2, 7A-3, 7B-3) are after subtracting the average value of each results from all control cats. The threshold of CFSE proliferation is ≥0.5 CFSE^low. […]

[8] = system: feline CD3^+CD8^+ T cells; assay: CFSE-based feline CD3+CD8+ T-cell proliferation; design: species or system cat
Procedure: as §9, §6, §10

FIVFC1 = assay: FIV enhancement and suppression (E/S) analysis of in vitro FIV infection of feline PBMC; assay type: cell-based, feline immunodeficiency virus; settings: FIV peptides; in vitro FIV infection of uninfected cat PBMC
Procedure: FIV viral enhancement or suppression was determined using a 48-well modification of the method described for detecting FIV enhancing activity of IFNγ and FIV suppressive activity of IFNα [37]. […] MAP1c contained four branched chains of peptide Fp4-3. T-cell mitogen concanavalin A (ConA) at 4 μg/mL was used as an infection enhancing control. Six hours after the culturing with peptide, MAP, or ConA, varying dilutions of FIVFC1 were added to the wells. Seventy-two hours later the cells were re-cultured in fresh culture media with ConA-stimulated autologous PBMC (0.25-0.5×10^6) using the same amount of corresponding peptide, MAP, ConA or media. On Day 7, 10, and 13 of culture, 0.5 mL of culture fluid was collected and 0.5 mL of fresh media added to maintain a consistent volume. The harvested culture samples were analyzed for FIV titer using the previously described RT assay. The results are shown as the end-point dilution titer from two studies using PBMC from different SPF donors.
Statistical analysis. The statistically significant differences between the end-point dilution titers of the peptide or MAP culture samples and either the virus control samples or specific MAP culture samples were calculated using a paired Student t-test with a two-tailed distribution (SigmaPlot version 11.0). Statistical comparisons between pre and post-vaccination(s) were similarly performed. The comparison was considered statistically significant when p<0.05.

[9] = HIV-1 epitope peptide, threshold ≥2% CFSElow
[10] = HIV-1 epitope peptide, threshold ≥0.2%
[11] = cats of Group 1, MAP Vaccine Trial 1 (FIG. 3)

Row | Sequence | IFNγ, frequency of responders (PBMC from HIV^+ subjects; HIV-1 epitope peptide, threshold ≥75 SFU per 10^6 PBMC) | IFNγ, frequency of responders (PBMC from HIV^+ subjects; HIV-1 peptides) | CD4+ T proliferation, frequency of responders [1, 9] | CDC4^+ T (T-cell proliferation), frequency of responders ([1]; HIV-1 peptides) | CD8+ T proliferation, frequency of responders [2, 9] | CD8^+ T (T-cell proliferation), frequency of responders ([2]; HIV-1 peptides) | CyCD8: CD8+ T-cell cytolysin/cytotoxins (perforin, GrzA & B), frequency of responders [3, 10] | CyCD7, frequency of responders ([3]; HIV-1 peptides) | CyCD4: CD4+ T-cell cytolysin/cytotoxins (perforin, GrzA & B), frequency of responders [4, 10] | CyCD4 (cytolysin and cytotoxin production of CD4+ T cells), frequency of responders ([4]; HIV-1 peptides) | IFNγ, frequency of responders ([5]; FIV peptides, FIV-vaccinated cats (prototype dual-subtype vaccine)) | IFNγ production [5, 11] | IL2, frequency of responders [6] | CDC4^+ T (T-cell proliferation), frequency of responders [7] | CD8^+ T (T-cell proliferation), frequency of responders ([8]; FIV peptides, FIV-vaccinated cats) | Responder frequency in CD8+ T-cell proliferation ([8]; FIV-vaccinated cats, in vitro analyses (Table 9)) | % CD8+ T-cell CFSE^low over % CD4+ T-cell CFSE^low ratio (CD8/CD4 response ratio) [8, 11] | FIV Test E/S (enhancer/suppressor analysis) (FIVFC1)
1 | KKDSTKWRKLVDFRE [HRT3-3] | + (12.5%-25% (+)) | + (12.5%-25% (+)) | ++ (25.1%-40% (++)) | ++ (25.1%-40% (++)) | +++ (40.1%-54% (+++)) | +++ (40.1%-54% (+++)) | ++++ (>54% (++++)) | ++++ (>54% (++++)) | ++++ (>54% (++++)) | ++++ (>54% (++++)) | – | – | – | – | – | – | – | –
2 | KKKSGKWRLIDFRVLNKL [FRT3-3/4] | – | – | – | – | – | – | – | – | – | – | +++ (40.1%-54% (+++)) | 531 SFU/10^6 PBMC | ++++ (>54% (++++)) | — (0%-1.4%(—)) | +++ (40.1%-54% (+++)) | 44.4% | 9 | ↓
